Test results from US20240336679A1, “METHODS FOR THE TREATMENT OF CANCER” (INSTITUT REGIONAL DU CANCER DE MONTPELLIER, priority 2021, published 2024).
Counter-ions that a name gives are not always drawn.

Assays:
[1] = tested on: PHGDH, PSAT1 and PSPH mRNA in C2C12 myoblasts cocultured with IB115 liposarcoma cells; test: Anti-IL-6 assay: RT-qPCR of serine synthesis genes in C2C12 myoblasts cocultured with IB115 cells treated with IL-6 signaling inhibitors; assay type: cell-based, mouse; settings: FIG. 11; for IL-6 dependent enhancement of the serine synthesis way (PHGDH, PSAT, PSPH mRNA): C2C12 myoblasts cocultured with IB115; for PSPH relative mRNA level: co-culture myoblasts with LPS, without inhibitors about 3.1; for PHGDH relative mRNA level / PSAT1 relative mRNA level: co-culture myocytes with LPS; for PHGDH relative mRNA level: without inhibitors 1.6; for PSAT1 relative mRNA level: without inhibitors about 2
Description: (§1) Total mRNAs were isolated from myoblasts (C2C12 cells) using TRIzol Reagent (Invitrogen) as previously described (Riscal et al. Mol Cell. 2016 Jun. 16; 62 (6): 890-902). Afterwards, Reverse Transcription of 1 μg mRNA into cDNA was performed using SuperScript III Reverse Transcriptase (Invitrogen), according to the manufacturer protocol. Quantification of the produced cDNA was achieve by Real-time quantitative PCRs on a LightCycler 480 SW 1.5 apparatus (Roche) using SYBR Green mix (Ozyme) plus the oligonucleotides of interest, and the following amplification protocol: 45 cycles of 95° C. for 4 s, 60° C. for 10 s, and 72° C. for 15 s. Analysis of the relative gene expression (mRNA copy number) was realized using Ct values and the 2^−ΔCt method, normalized on at least two different housekeeping genes (TBP, Tubuline, RPL13a, Gus B, β-microglobuline).
Relative quantities of mRNA of MDM2 direct target genes PHGDH, PSAT1 and PSPH were determined by RT-qPCR in C2C12 cells culture alone or in coculture with IB115 cells treated or not with a blocking anti-IL-6 antibody (Wijdenes et al., Mol Immunol, 28 (1991), p. 1183),i.e., IL-6 receptor inhibitor such as Bazedoxifène, or STAT3 inhibitors such as C188-9 and Stattic (mean+/−SD; n=3 independent experiments). Statistical significance was evaluated using non-parametric Mann-Whitney U tests.

XG-6 cells = test: Growth of IL-6 dependent cell line XG-6; assay type: cell-based; settings: FIG. 3; RPMI, 2 ng/ml, 3 days; no growth without IL-6
Description: 50 000 XG-6 cells (IL-6 dependent cell line) were seeded in an equal number in four plastic dishes and cultured in suspension in 2 ml of RPMI (Gibco) medium at 37° C./5% CO2 for 3 days. The fourth dishes' conditions are as follows: • XG-6 cells cultured in 2 ml of RPMI in the presence of 2 ng/ml of recombinant IL-6 (obtained with the method illustrated in Wijdenes et al., Mol Immunol, 28 (1991), p. 1183) • XG-6 cells cultured in 2 ml of RPMI, • XG-6 cells cultured in 2 ml of MCF7 cell lines supernatant as previously obtained, • XG-6 cells cultured in 2 ml of IB115 cell lines supernatant as previously obtained.

[2] = tested on: PHGDH, PSAT1 and PSPH mRNA in C2C12 myoblasts cocultured with IB115 liposarcoma cells; test: shRNA assay: RT-qPCR of serine synthesis genes in C2C12 myoblasts cocultured with IB115 cells depleted of human IL-6; assay type: cell-based, mouse; settings: FIG. 4, myocytes cultured with LPS (IB115) and treated with shIL-6
Description: as §1
Relative quantities of mRNA of MDM2 direct target genes PHGDH, PSAT1 and PSPH were determined by RT qPCR in C2C12 myoblasts cultured alone or in coculture with IB115 cells treated or not for shRNA mediated depletion of human IL-6 (shIL-6). Data were normalized to the corresponding control samples prepared from IB115 cells treated with a control shRNA (mean SD n=3 independent experiments) Statistical significance was evaluated using non parametric Mann Whitney U tests.

[3] = tested on: cancer cells exhibiting recruitment of MDM2 to chromatin (C-MDM2 (+)); test: Cell viability / IC50 measurement (SRB assay) upon SP141 treatment; assay type: cell-based, human; settings: FIG. 8; as soon as 24 hours after treatment with low concentrations
Description: Cell survival after SP141, IL-6, IL-6 inhibitor and/or serine/glycine deprived diet treatment (IC50) was determined using the Sulforhodamine B assay (SRB assay). Cells were seeded in 96-well plates (Sarsted) in complete DMEM medium as to obtain triplicates for each conditions (5 000 cells/well). After 24 h, serial dilutions of the indicated compounds were added to the cells. […] Fixed SRB was finally dissolved in 10 mM Tris-HCl solution and 560 nm absorbance was read using a PHERAstar FSX plate reader.

COc1ccc(S(=O)(=O)Nc2cc(-c3c(O)ccc4ccccc34)c(O)c3ccccc23)cc1 [C188-9]
IL-6 dependent enhancement of the serine synthesis way (PHGDH, PSAT, PSPH mRNA) ([1]; 10 nM): decreases | PSPH relative mRNA level ([1]; 10 nM): about 1.5 A.U | PHGDH relative mRNA level ([1]; 10 nM): about 0.5 A.U | PSAT1 relative mRNA level ([1]; 10 nM): about 1.3 A.U

O=[N+]([O-])c1ccc2c(c1)S(=O)(=O)C=C2 [Stattic]
IL-6 dependent enhancement of the serine synthesis way (PHGDH, PSAT, PSPH mRNA) ([1]; 10 nM): decreases | PSPH relative mRNA level ([1]; 10 nM): about 1.75 A.U | PSAT1 relative mRNA level ([1]; 10 nM): ~1.5 A.U

Cc1c(-c2ccc(O)cc2)n(Cc2ccc(OCCN3CCCCCC3)cc2)c2ccc(O)cc12 [BZA, 1-[[4-[2-(Hexahydro-1H-azepin-1-yl)ethoxy]phenyl]methyl]-2-(4-hydroxyphenyl)-3-methyl-1H-indol-5-ol monoacetate (salt)]
PSPH relative mRNA level ([1]; 100 nM): about 1.8 A.U | PHGDH relative mRNA level ([1]; 100 nM): about 0.6 A.U | PSAT1 relative mRNA level ([1]; 100 nM): about 1.3 A.U

recombinant IL-6: recombinant IL-6 obtained with the method of Wijdenes et al.; positive control for XG-6 growth
Quantity of XG-6 cells (XG-6 cells): more than 150000 AU

shIL-6: shRNA to inactivate human IL-6 expression; a sequence may be 5′-GACACTATTTTAATTATTTTTAA-3′ (shRNA, chemistry and expression mode not given here, further chemistry not given here)
relative mRNA level of PSAT ([2]; myocytes alone about 1, with LPS about 1.75): about 1 AU | relative mRNA level of PSPH ([2]; myocytes alone about 1, with LPS about 2.5): about 1 AU | relative mRNA level of PHGDH ([2]; myocytes alone about 1, with LPS about 4.4): about 1.75 AU

COc1ccc2[nH]c3c(-c4cccc5ccccc45)nccc3c2c1 [SP141]
cell viability of cancer cells C-MDM2 (+) [3]: important loss of cell viability
